Test results: patent publication US10329302B2, “Bicyclic-fused heteroaryl or aryl compounds” (Pfizer Inc., priority 2014, dated 2019)

Biological target: human IRAK4 FL (Full Length) (Homo sapiens (Human), UniProt Q9NWZ3)
Assay: IRAK4 Enzymatic DELFIA Assay, Protocol A
Type: biochemical
Conditions: human IRAK4 FL, 0.6 mM ATP (KM); read-out: IRAK4 DELFIA Protocol A IC50

Sequence of human IRAK4 FL (Full Length) (Q9NWZ3 whole entry): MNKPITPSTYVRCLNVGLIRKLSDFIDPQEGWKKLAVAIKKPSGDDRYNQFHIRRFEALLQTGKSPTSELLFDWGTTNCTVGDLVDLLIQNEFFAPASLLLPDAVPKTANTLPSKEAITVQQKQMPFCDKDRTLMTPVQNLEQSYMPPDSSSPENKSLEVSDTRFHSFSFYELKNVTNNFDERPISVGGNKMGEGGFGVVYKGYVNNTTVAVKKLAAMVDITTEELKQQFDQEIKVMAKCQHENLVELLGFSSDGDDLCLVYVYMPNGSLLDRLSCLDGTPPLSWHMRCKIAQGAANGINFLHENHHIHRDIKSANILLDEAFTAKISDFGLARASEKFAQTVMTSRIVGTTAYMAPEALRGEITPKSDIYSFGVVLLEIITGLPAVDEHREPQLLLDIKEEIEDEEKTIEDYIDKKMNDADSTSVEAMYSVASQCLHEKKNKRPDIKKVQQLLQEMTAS

SMILES	IC50
CC(C)Oc1cc2c(OC[C@@H]3C[C@@](O)(CC(F)(F)F)C(=O)N3)nccc2cc1C(N)=O [Example 182, 1-{[(2S,4R)-4-hydroxy-5-oxo-4-(2,2,2-trifluoroethyl)pyrrolidin-2-yl]methoxy}-7-(propan-2-yloxy)isoquinoline-6-carboxamide]	1050 nM
CC(C)Oc1cc2c(OC[C@]3(C)CCC(=O)N3)nccc2cc1C(N)=O [Example 126, 1-{[(2S)-2-methyl-5-oxopyrrolidin-2-yl]methoxy}-7-(propan-2-yloxy)isoquinoline-6-carboxamide]	42 nM
CC(C)Oc1cc2c(OC[C@@H]3C[C@@](F)(C(C)(C)O)C(=O)N3)nccc2cc1C(N)=O [Example 171, 1-{[(2S,4R)-4-fluoro-4-(2-hydroxypropan-2-yl)-5-oxopyrrolidin-2-yl]methoxy}-7-(propan-2-yloxy)isoquinoline-6-carboxamide]	101 nM
CC(C)Oc1cc2c(OC[C@H]3NC(=O)C[C@@H]3N)nccc2cc1C(N)=O [Example 149, 1-{[(2S,3S)-3-amino-5-oxopyrrolidin-2-yl]methoxy}-7-(propan-2-yloxy)isoquinoline-6-carboxamide]	105 nM
CC(C)Oc1cc2c(O[C@H](C)[C@@H]3CCC(=O)N3)nccc2cc1C(N)=O [Example 156, 1-{(1R)-1-[(2S)-5-oxopyrrolidin-2-yl]ethoxy}-7-(propan-2-yloxy)isoquinoline-6-carboxamide]	4100 nM
CC(C)Oc1cc2c(OC[C@H]3NC(=O)[C@@H]4CNC[C@H]34)nccc2cc1C(N)=O [Example 226, 1-{[(1S,3aS,6aR)-3-oxooctahydropyrrolo[3,4-c]pyrrol-1-yl]methoxy}-7-(propan-2-yloxy)isoquinoline-6-carboxamide]	222 nM
CC(C)Oc1cc2c(OCC3COCC(=O)N3)nccc2cc1C(N)=O (centres unmarked) [Example 116, 1-[(5-oxomorpholin-3-yl)methoxy]-7-(propan-2-yloxy)isoquinoline-6-carboxamide]	146 nM
CC(C)Oc1cc2c(OC[C@@H]3CCC(=O)N3)ncc(C#N)c2cc1C(N)=O [Example 190, 4-cyano-1-{[(2S)-5-oxopyrrolidin-2-yl]methoxy}-7-(propan-2-yloxy)isoquinoline-6-carboxamide]	294 nM
CC(C)Oc1cc2c(O[C@@H](C)[C@@H]3CCC(=O)N3)nccc2cc1C(N)=O [Example 157, 1-{(1S)-1-[(2S)-5-oxopyrrolidin-2-yl]ethoxy}-7-(propan-2-yloxy)isoquinoline-6-carboxamide]	152 nM
Cc1ccnc(-c2cnc(OC[C@@H]3CCC(=O)N3)c3cc(OC(C)C)c(C(N)=O)cc23)n1 [Example 376, 4-(4-methylpyrimidin-2-yl)-1-{[(2S)-5-oxopyrrolidin-2-yl]methoxy}-7-(propan-2-yloxy)isoquinoline-6-carboxamide]	740 nM
COc1cc2c(OC[C@@H]3C[C@](F)(CF)C(=O)N3)nccc2cc1C(N)=O [Example 261, 1-{[(2S,4R)-4-fluoro-4-(fluoromethyl)-5-oxopyrrolidin-2-yl]methoxy}-7-methoxyisoquinoline-6-carboxamide]	671 nM
CC(C)Oc1cc2c(OC[C@H]3NC(=O)[C@@H]4CN(C)C[C@H]34)nccc2cc1C(N)=O [Example 213, 1-{[(1S,3aS,6aR)-5-methyl-3-oxooctahydropyrrolo[3,4-c]pyrrol-1-yl]methoxy}-7-(propan-2-yloxy)isoquinoline-6-carboxamide]	1420 nM
CC(C)Oc1cc2c(OCC3CCC(=O)NC3)nccc2cc1C(N)=O (centres unmarked) [Example 142, 1-[(6-oxopiperidin-3-yl)methoxy]-7-(propan-2-yloxy)isoquinoline-6-carboxamide]	1220 nM
COc1cc2c(OC[C@H]3NC(=O)[C@@H]4[C@@H](C)[C@@H]43)c(Cl)cnc2cc1C(N)=O [Example 321, 3-chloro-6-methoxy-4-{[(1S,2S,5R)-6-methyl-4-oxo-3-azabicyclo[3.1.0]hex-2-yl]methoxy}quinoline-7-carboxamide]	4190 nM
COc1cc2c(OC[C@H]3NC(=O)[C@@H]4[C@H](CO)[C@@H]43)nccc2cc1C(N)=O [Example 328, 1-{[(1S,2S,5S)-6-(hydroxymethyl)-4-oxo-3-azabicyclo[3.1.0]hex-2-yl]methoxy}-7-methoxyisoquinoline-6-carboxamide]	93 nM
CC(C)Oc1cc2c(O[C@@H]3CCC[C@]34CCC(=O)N4)nccc2cc1C(N)=O [Example 186, 1-{[(5S,6R)-2-oxo-1-azaspiro[4.4]non-6-yl]oxy}-7-(propan-2-yloxy)isoquinoline-6-carboxamide]	303 nM
CC(C)Oc1c(C(N)=O)cc2ccnc(OC[C@@H]3CCC(=O)N3)c2c1F [Example 176, 8-fluoro-1-{[(2S)-5-oxopyrrolidin-2-yl]methoxy}-7-(propan-2-yloxy)isoquinoline-6-carboxamide]	695 nM
CC(C)Oc1cc2c(OC[C@@H]3CN(C)C(=O)N3)nccc2cc1C(N)=O [Example 185, 1-{[(4S)-1-methyl-2-oxoimidazolidin-4-yl]methoxy}-7-(propan-2-yloxy)isoquinoline-6-carboxamide]	116 nM
CC(C)Oc1cc2c(OC[C@H]3NC(=O)C[C@@H]3CO)nccc2cc1C(N)=O [Example 212, 1-{[(2S,3S)-3-(hydroxymethyl)-5-oxopyrrolidin-2-yl]methoxy}-7-(propan-2-yloxy)isoquinoline-6-carboxamide]	150 nM
COc1cc2c(OCC3(C)COCC(=O)N3)nccc2cc1C(N)=O (centres unmarked) [Example 265, 7-methoxy-1-[(3-methyl-5-oxomorpholin-3-yl)methoxy]isoquinoline-6-carboxamide]	1540 nM
CC(C)Oc1cc2c(OCC3CCS(=O)(=O)N3)nccc2cc1C(N)=O (centres unmarked) [Example 143, 1-[(1,1-dioxido-1,2-thiazolidin-3-yl)methoxy]-7-(propan-2-yloxy)isoquinoline-6-carboxamide]	2540 nM
COc1cc2c(OC[C@H]3NC(=O)CC3(C)C)nccc2cc1C(N)=O [Example 221, 1-{[(2S)-3,3-dimethyl-5-oxopyrrolidin-2-yl]methoxy}-7-methoxyisoquinoline-6-carboxamide]	54 nM
CC(C)Oc1cc2c(OC[C@H]3NC(=O)C[C@@H]3C(F)(F)F)nccc2cc1C(N)=O [Example 155, 1-{[(2S,3S)-5-oxo-3-(trifluoromethyl)pyrrolidin-2-yl]methoxy}-7-(propan-2-yloxy)isoquinoline-6-carboxamide]	267 nM
CC(C)Oc1cc2c(OC[C@@H]3C[C@@](C)(F)C(=O)N3)nccc2cc1C(N)=O [Example 133, 1-{[(2S,4R)-4-fluoro-4-methyl-5-oxopyrrolidin-2-yl]methoxy}-7-(propan-2-yloxy)isoquinoline-6-carboxamide]	175 nM
NC(=O)c1cc2ccnc(OC[C@@H]3CCC(=O)N3)c2cc1OC(F)F [Example 129, 7-(difluoromethoxy)-1-{[(2S)-5-oxopyrrolidin-2-yl]methoxy}isoquinoline-6-carboxamide]	231 nM
CC(C)Oc1cc2c(OC[C@@H]3C[C@H](CO)C(=O)N3)nccc2cc1C(N)=O [Example 165, 1-{[(2S,4R)-4-(hydroxymethyl)-5-oxopyrrolidin-2-yl]methoxy}-7-(propan-2-yloxy)isoquinoline-6-carboxamide]	541 nM
